The results in this text go back to patent US9216978B2, “Ring-fused pyrimidines and triazines and use thereof for the treatment and/or prophylaxis of cardiovascular diseases” (BAYER INTELLECTUAL PROPERTY GMBH, priority 2010, dated 2015).

For data set [1], the system named is aorta. The data set is described as follows: Vessel-relaxing action in vitro (phenylephrine-contracted aorta rings). Particulars: Oryctolagus cuniculus; rabbit aorta rings, phenylephrine contraction; concentration reducing control contraction by 50%. As for the experimental part:
B-1. Vessel-Relaxing Action In Vitro
Rabbits are stunned with a blow on the back of the neck and exsanguinated. The aorta is removed, freed from adhering tissue, separated into rings with a width of 1.5 mm, and placed individually, with preloading, in 5-ml organ baths with carbogen-gassed Krebs-Henseleit solution at 37° C. with the following composition (mM in each case): sodium chloride: 119; potassium chloride: 4.8; calcium chloride dihydrate: 1; magnesium sulphate heptahydrate: 1.4; potassium dihydrogen phosphate: 1.2; sodium hydrogen carbonate: 25; glucose: 10. The contraction force is recorded with Statham UC2 cells, amplified and digitized via an A/D converter (DAS-1802 HC, Keithley Instruments Munich) and recorded in parallel on a continuous-line recorder. To produce contraction, phenylephrine is added to the bath cumulatively in increasing concentration. After several control cycles, the test substance is added in increasing dosage in each subsequent pass and the level of contraction is compared with the level of contraction reached in the immediately preceding pass. This is used for calculating the concentration that is required to reduce the level of the control value by 50% (IC50 value). The standard application volume is 5 μl, and the proportion of DMSO in the bath solution corresponds to 0.1%.

The target in data set [2] is T1, recombinant guanylate cyclase reporter cell line (Rattus norvegicus, UniProt P19686+P20595).
T1 construct: expressed in transfected cells
T1 sequence (P20595 1-619): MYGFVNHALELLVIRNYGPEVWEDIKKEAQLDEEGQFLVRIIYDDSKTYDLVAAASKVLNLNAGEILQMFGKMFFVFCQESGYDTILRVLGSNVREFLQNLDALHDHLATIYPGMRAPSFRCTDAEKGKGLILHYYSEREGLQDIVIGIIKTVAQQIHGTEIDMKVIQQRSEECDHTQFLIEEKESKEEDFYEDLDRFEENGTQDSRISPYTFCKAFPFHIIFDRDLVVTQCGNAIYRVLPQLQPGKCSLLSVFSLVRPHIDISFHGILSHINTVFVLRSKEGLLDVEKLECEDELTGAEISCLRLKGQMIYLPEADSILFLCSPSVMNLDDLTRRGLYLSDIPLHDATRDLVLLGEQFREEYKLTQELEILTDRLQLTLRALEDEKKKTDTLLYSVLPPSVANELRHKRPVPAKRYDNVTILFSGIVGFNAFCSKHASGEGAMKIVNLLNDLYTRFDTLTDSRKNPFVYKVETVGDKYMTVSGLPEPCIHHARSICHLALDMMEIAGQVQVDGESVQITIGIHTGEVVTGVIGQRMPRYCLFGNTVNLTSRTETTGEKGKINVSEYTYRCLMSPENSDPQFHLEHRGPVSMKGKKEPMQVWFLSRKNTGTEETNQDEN
T1 sequence (P19686 1-690): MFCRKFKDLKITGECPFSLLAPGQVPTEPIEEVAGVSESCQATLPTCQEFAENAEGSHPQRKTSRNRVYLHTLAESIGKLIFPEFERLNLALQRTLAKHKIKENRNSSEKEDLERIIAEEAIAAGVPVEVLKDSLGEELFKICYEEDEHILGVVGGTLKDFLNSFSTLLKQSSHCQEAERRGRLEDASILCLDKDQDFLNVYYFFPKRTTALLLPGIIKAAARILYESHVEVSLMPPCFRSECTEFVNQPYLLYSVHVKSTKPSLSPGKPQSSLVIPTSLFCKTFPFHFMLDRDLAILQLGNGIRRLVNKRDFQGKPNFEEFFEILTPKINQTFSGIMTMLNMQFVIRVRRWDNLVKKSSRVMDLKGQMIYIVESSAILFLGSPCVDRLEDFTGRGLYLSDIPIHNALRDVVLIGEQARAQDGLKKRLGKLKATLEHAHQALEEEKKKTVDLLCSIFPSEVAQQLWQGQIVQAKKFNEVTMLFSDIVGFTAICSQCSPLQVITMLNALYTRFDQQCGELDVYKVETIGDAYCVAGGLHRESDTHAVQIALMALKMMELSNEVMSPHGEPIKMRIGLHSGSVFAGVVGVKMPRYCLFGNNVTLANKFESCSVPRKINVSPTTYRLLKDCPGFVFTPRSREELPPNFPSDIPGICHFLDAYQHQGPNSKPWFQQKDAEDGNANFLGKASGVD
Nature of the data set: Action on recombinant guanylate cyclase reporter cell line. It counts as cell-based. On the procedure:
B-2. Action on Recombinant Guanylate Cyclase Reporter Cell Line
The cellular action of the compounds according to the invention is determined on a recombinant guanylate cyclase reporter cell line, as described in F. Wunder et al., Anal. Biochem. 339, 104-112 (2005).

Data set [3] is described as follows: Determination of pharmacokinetic parameters after intravenous administration in rats. It counts as in vivo, rat. Particulars: intravenous administration of 0.3 mg/kg; for MRT / half-life: male, Wistar, rat, plasma; for MRT: read-out: mean residence time; for half-life: read-out: terminal half-life (converted). As for the experimental part:
B-4. Determination of Pharmacokinetic Parameters after Intravenous and Oral Administration
The pharmacokinetic parameters of the compounds of the formula (I) according to the invention are determined in male CD-1 mice, male Wistar rats and/or female beagles. The administration volume is 5 ml/kg for mice, 5 ml/kg for rats and 0.5 ml/kg for dogs. Intravenous administration is via a formulation of species-specific plasma/DMSO (99/1) in the case of mice and rats and via water/PEG400/ethanol (50/40/10 or 30/60/10) in the case of dogs. For easier removal of blood, a silicone catheter is inserted into the right Vena jugularis externa of the rats before the administration of substance. The surgical intervention takes place one day prior to the experiment with isofluran anaesthesia and administration of an analgetic (atropine/rimadyl (3/1) 0.1 ml s.c.). Substance administration is as i.v. bolus in the case of mice and rats and via a 15-minute infusion in the case of dogs. Removal of blood is after 0.033, 0.083, 0.17, 0.5, 1, 2, 3, 4, 6, 7 and 24 hours in the case of rats, after 0.033, 0.083, 0.17, 0.5, 1, 2, 3, 4, 6, 7, 24, 48 and 72 hours in the case of mice and after 0.083, 0.25, 0.28 0.33, 0.42, 0.75, 1, 2, 3, 4, 6, 7 and 24 hours in the case of dogs. For all species, oral administration of the dissolved substance via gavage is carried out based on a water/PEG400/ethanol formulation (50/40/10). Here, the removal of blood from rats is after 0.083, 0.17, 0.5, 0.75, 1, 2, 3, 4, 6, 7 and 24 hours and from dogs after 0.083, 0.17, 0.5, 0.75, 1, 2, 3, 4, 6, 7, 24, 30 and 48 hours. The blood is removed into heparinized tubes. The blood plasma is then obtained by centrifugation; if required, it can be stored at −20° C. until further processing.
An internal standard (ZK 228859) is added to the samples of the compounds of the formula (I) according to the invention, calibration samples and QCs, and the protein is precipitated using excess acetonitrile. After addition of an ammonium acetate buffer (0.01 M, pH 6.8) and subsequent vortexing, the mixture is centrifuged at 1000 g and the supernatant is examined by LC-MS/MS (API 4000, AB Sciex). Chromatographic separation is carried out on an Agilent 1100-HPLC. The injection volume is 10 μl. The separation column used is a Phenomenex Luna 5μ C8(2) 100 A 50×2 mm, adjusted to a temperature of 40° C. A binary mobile phase gradient at 500 μl/min is used (A: 0.01 M ammonium acetate buffer pH 6.8, B: 0.1% formic acid in acetonitrile): 0 min (90% A), 1 min (90% A), 3 min (15% A), 4 min (15% A), 4.50 min (90% A), 6 min (90% A). The temperature of the Turbo V ion source is 500° C. The following MS instrument parameters are used: curtain gas 15 units, ion spray voltage 4.8 kV, gas 1 45 units, gas 2 35 units, CAD gas 40 units. The substances are quantified by peak heights or areas using extracted ion chromatograms of specific MRM experiments.
The pharmacokinetic parameters such as AUC, Cmax, t1/2 (terminal half-life), MRT (mean residence time) and CL (clearance) are calculated by means of the validated pharmacokinetics calculation program KinEx (Vers. 2.5 and 3) from the plasma concentration-time curves obtained.
As substance quantification takes place in plasma, the blood/plasma distribution of the substance must be determined for appropriate adjustment of the pharmacokinetic parameters. For this, a defined amount of the substance in heparinized whole blood of the corresponding species is incubated for 20 min in the tumbling roller mixer. After centrifugation at 1000 g, the plasma concentration is measured (see above) and the Cblood/Cplasma value is determined by finding the quotient.
Following intravenous administration of 0.3 mg/kg of Example 1, 18, 19 and 27 in rats, the following values were recorded: […]

Molecules are shown by their SMILES.

In data set [1], `CC1(C)C(=O)Nc2nc(-c3nn(Cc4ccccc4F)c4ncccc34)nc(C(F)F)c21` [Example 7, 4-(Difluoromethyl)-2-[1-(2-fluorobenzyl)-1H-pyrazolo[3,4-b]pyridin-3-yl]-5,5-dimethyl-5,7-dihydro-6H-pyrrolo[2,3-d]pyrimidin-6-one] returned an IC50 of 45 nM. The “MEC (minimal effective concentration)” value in data set [2] is 0.03 µM.

For the molecule `CC(C)(C)OC(=O)CC1(O)C(=O)Nc2nc(-c3nn(Cc4ccccc4F)c4ncccc34)ncc21` (centres unmarked) [Example 24, tert-Butyl {2-[1-(2-fluorobenzyl)-1H-pyrazolo[3,4-b]pyridin-3-yl]-5-hydroxy-6-oxo-6,7-dihydro-5H-pyrrolo[2,3-d]pyrimidin-5-yl}acetate], the IC50 in data set [1] stood at 269 nM. Also, in data set [2], the “MEC (minimal effective concentration)” value was found to be 0.3 µM.

In the case of `CC1(C)C(=O)Nc2nc(-c3nn(Cc4cccc(F)c4F)c4ncccc34)nnc21` [Example 27, 3-[1-(2,3-Difluorobenzyl)-1H-pyrazolo[3,4-b]pyridin-3-yl]-7,7-dimethyl-5,7-dihydro-6H-pyrrolo[2,3-e][1,2,4]triazin-6-one], in data set [3], the CLblood stood at 0.35 L/h/kg, the MRT stood at 7.3 h and the half-life was 336 min. In data set [1], this molecule displayed an IC50 of 54 nM. The “MEC (minimal effective concentration)” value in data set [2] was 0.03 µM.

In the case of `CC1(C)C(=O)Nc2nc(-c3nn(Cc4cccc(F)c4F)c4ncccc34)ncc21` [Example 11, 2-[1-(2,3-Difluorobenzyl)-1H-pyrazolo[3,4-b]pyridin-3-yl]-5,5-dimethyl-5,7-dihydro-6H-pyrrolo[2,3-d]pyrimidin-6-one], in data set [1], the IC50 came to 4 nM. The “MEC (minimal effective concentration)” value in data set [2] was 0.03 µM.

For `CC1(O)C(=O)Nc2nc(-c3nn(Cc4ccccc4F)c4ncccc34)ncc21` (centres unmarked) [Example 17, 2-[1-(2-Fluorobenzyl)-1H-pyrazolo[3,4-b]pyridin-3-yl]-5-hydroxy-5-methyl-5,7-dihydro-6H-pyrrolo[2,3-d]pyrimidin-6-one], the IC50 in data set [1] is 13 nM. Besides, the “MEC (minimal effective concentration)” value in data set [2] was determined as 0.1 µM.

For the molecule `CC1(C)C(=O)Nc2nc(-c3nn(Cc4cccc(F)c4F)c4ncc(F)cc34)nnc21` [Example 20, 3-[1-(2,3-Difluorobenzyl)-5-fluoro-1H-pyrazolo[3,4-b]pyridin-3-yl]-7,7-dimethyl-5,7-dihydro-6H-pyrrolo[2,3-e][1,2,4]triazin-6-one], half-maximal inhibition in data set [1] (IC50) required 45 nM. Also, in data set [2], the “MEC (minimal effective concentration)” value amounted to 0.03 µM.

For the molecule `O=C1Nc2nc(-c3nn(Cc4ccccc4F)c4ncccc34)ncc2C1(O)C(F)(F)F` (centres unmarked) [Example 18, 2-[1-(2-Fluorobenzyl)-1H-pyrazolo[3,4-b]pyridin-3-yl]-5-hydroxy-5-(trifluoromethyl)-5,7-dihydro-6H-pyrrolo[2,3-d]pyrimidin-6-one], in data set [3], the CLblood was found to be 0.46 L/h/kg, the MRT is 1.9 h and the half-life is 84 min. For the same molecule, in data set [1], the IC50 was 93 nM. Further, the “MEC (minimal effective concentration)” value in data set [2] was 0.03 µM.

As for `CC1(C)C(=O)Nc2nc(-c3nn(Cc4ccccc4F)c4ncccc34)ncc21` [Example 1, 2-[1-(2-Fluorobenzyl)-1H-pyrazolo[3,4-b]pyridin-3-yl]-5,5-dimethyl-5,7-dihydro-6H-pyrrolo[2,3-d]pyrimidin-6-one], in data set [3], the CLblood turned out to be 1.1 L/h/kg, the MRT was 1.2 h and the half-life is 54 min. In data set [1], this molecule displayed an IC50 of 12 nM. Further, the “MEC (minimal effective concentration)” value in data set [2] turned out to be 0.01 µM.

`CC1CC(=O)Nc2nc(-c3nn(Cc4ccccc4F)c4ncccc34)ncc21` (centres unmarked) [Example 14, 2-[1-(2-Fluorobenzyl)-1H-pyrazolo[3,4-b]pyridin-3-yl]-5-methyl-5,8-dihydropyrido[2,3-d]-pyrimidin-7(6H)-one] returned an IC50 in data set [1] of 65 nM. In addition, the “MEC (minimal effective concentration)” value in data set [2] came to 0.1 µM.

Take `CC1(F)C(=O)Nc2nc(-c3nn(Cc4ccccc4F)c4ncccc34)ncc21` (centres unmarked) [Example 23, 5-Fluoro-2-[1-(2-fluorobenzyl)-1H-pyrazolo[3,4-b]pyridin-3-yl]-5-methyl-5,7-dihydro-6H-pyrrolo[2,3-d]pyrimidin-6-one]: in data set [1], the IC50 came to 15 nM. Besides, the “MEC (minimal effective concentration)” value in data set [2] is 0.03 µM.
